Reference: BigSolDB 2.1

Cl.Cl.Fc1ccc(C(c2ccc(F)cc2)N2CCN(C/C=C/c3ccccc3)CC2)cc1
solubility (mole fraction) (in acetone, 293.15 K): 0.00271 | solubility (mole fraction) (in acetone, 298.15 K): 0.00338 | solubility (mole fraction) (in acetone, 303.15 K): 0.00422 | solubility (mole fraction) (in acetone, 308.15 K): 0.00518 | solubility (mole fraction) (in acetone, 313.15 K): 0.00638 | solubility (mole fraction) (in acetone, 318.15 K): 0.0078 | solubility (mole fraction) (in acetone, 323.15 K): 0.00948 | solubility (mole fraction) (in acetone, 328.15 K): 0.0115 | solubility (mole fraction) (in acetone, 333.15 K): 0.0139 | solubility (mole fraction) (in acetonitrile, 293.15 K): 0.00219 | solubility (mole fraction) (in acetonitrile, 298.15 K): 0.00275 | solubility (mole fraction) (in acetonitrile, 303.15 K): 0.00343 | solubility (mole fraction) (in acetonitrile, 308.15 K): 0.00428 | solubility (mole fraction) (in acetonitrile, 313.15 K): 0.00528 | solubility (mole fraction) (in acetonitrile, 318.15 K): 0.00651 | solubility (mole fraction) (in acetonitrile, 323.15 K): 0.008 | solubility (mole fraction) (in acetonitrile, 328.15 K): 0.00977 | solubility (mole fraction) (in acetonitrile, 333.15 K): 0.0119 | solubility (mole fraction) (in ethanol, 293.15 K): 0.00522 | solubility (mole fraction) (in ethanol, 298.15 K): 0.00649 | solubility (mole fraction) (in ethanol, 303.15 K): 0.00792 | solubility (mole fraction) (in ethanol, 308.15 K): 0.00975 | solubility (mole fraction) (in ethanol, 313.15 K): 0.0119 | solubility (mole fraction) (in ethanol, 318.15 K): 0.0145 | solubility (mole fraction) (in ethanol, 323.15 K): 0.0176 | solubility (mole fraction) (in ethanol, 328.15 K): 0.0211 | solubility (mole fraction) (in ethanol, 333.15 K): 0.0252 | solubility (mole fraction) (in ethyl acetate, 293.15 K): 0.00146 | solubility (mole fraction) (in ethyl acetate, 298.15 K): 0.00184 | solubility (mole fraction) (in ethyl acetate, 303.15 K): 0.00229 | solubility (mole fraction) (in ethyl acetate, 308.15 K): 0.00285 | solubility (mole fraction) (in ethyl acetate, 313.15 K): 0.00353 | solubility (mole fraction) (in ethyl acetate, 318.15 K): 0.00434 | solubility (mole fraction) (in ethyl acetate, 323.15 K): 0.0053 | solubility (mole fraction) (in ethyl acetate, 328.15 K): 0.00644 | solubility (mole fraction) (in ethyl acetate, 333.15 K): 0.00782 | solubility (mole fraction) (in isobutanol, 293.15 K): 0.00186 | solubility (mole fraction) (in isobutanol, 298.15 K): 0.00236 | solubility (mole fraction) (in isobutanol, 303.15 K): 0.00296 | solubility (mole fraction) (in isobutanol, 308.15 K): 0.00371 | solubility (mole fraction) (in isobutanol, 313.15 K): 0.00462 | solubility (mole fraction) (in isobutanol, 318.15 K): 0.00573 | solubility (mole fraction) (in isobutanol, 323.15 K): 0.00711 | solubility (mole fraction) (in isobutanol, 328.15 K): 0.00873 | solubility (mole fraction) (in isobutanol, 333.15 K): 0.0106 | solubility (mole fraction) (in isopropanol, 293.15 K): 0.0026 | solubility (mole fraction) (in isopropanol, 298.15 K): 0.00328 | solubility (mole fraction) (in isopropanol, 303.15 K): 0.00406 | solubility (mole fraction) (in isopropanol, 308.15 K): 0.00501 | solubility (mole fraction) (in isopropanol, 313.15 K): 0.00618 | solubility (mole fraction) (in isopropanol, 318.15 K): 0.00756 | solubility (mole fraction) (in isopropanol, 323.15 K): 0.00919 | solubility (mole fraction) (in isopropanol, 328.15 K): 0.0112 | solubility (mole fraction) (in isopropanol, 333.15 K): 0.0136 | solubility (mole fraction) (in methanol, 293.15 K): 0.00604 | solubility (mole fraction) (in methanol, 298.15 K): 0.0076 | solubility (mole fraction) (in methanol, 303.15 K): 0.00934 | solubility (mole fraction) (in methanol, 308.15 K): 0.0115 | solubility (mole fraction) (in methanol, 313.15 K): 0.0139 | solubility (mole fraction) (in methanol, 318.15 K): 0.017 | solubility (mole fraction) (in methanol, 323.15 K): 0.0207 | solubility (mole fraction) (in methanol, 328.15 K): 0.025 | solubility (mole fraction) (in methanol, 333.15 K): 0.0298 | solubility (mole fraction) (in methyl acetate, 293.15 K): 0.00133 | solubility (mole fraction) (in methyl acetate, 298.15 K): 0.00168 | solubility (mole fraction) (in methyl acetate, 303.15 K): 0.00211 | solubility (mole fraction) (in methyl acetate, 308.15 K): 0.00263 | solubility (mole fraction) (in methyl acetate, 313.15 K): 0.00326 | solubility (mole fraction) (in methyl acetate, 318.15 K): 0.004 | solubility (mole fraction) (in methyl acetate, 323.15 K): 0.00494 | solubility (mole fraction) (in methyl acetate, 328.15 K): 0.00603 | solubility (mole fraction) (in methyl acetate, 333.15 K): 0.00736 | solubility (mole fraction) (in n-butanol, 293.15 K): 0.00185 | solubility (mole fraction) (in n-butanol, 298.15 K): 0.00236 | solubility (mole fraction) (in n-butanol, 303.15 K): 0.00296 | solubility (mole fraction) (in n-butanol, 308.15 K): 0.00372 | solubility (mole fraction) (in n-butanol, 313.15 K): 0.00464 | solubility (mole fraction) (in n-butanol, 318.15 K): 0.00575 | solubility (mole fraction) (in n-butanol, 323.15 K): 0.00712 | solubility (mole fraction) (in n-butanol, 328.15 K): 0.00875 | solubility (mole fraction) (in n-butanol, 333.15 K): 0.0107 | solubility (mole fraction) (in n-propanol, 293.15 K): 0.00472 | solubility (mole fraction) (in n-propanol, 298.15 K): 0.00587 | solubility (mole fraction) (in n-propanol, 303.15 K): 0.00714 | solubility (mole fraction) (in n-propanol, 308.15 K): 0.00877 | solubility (mole fraction) (in n-propanol, 313.15 K): 0.0108 | solubility (mole fraction) (in n-propanol, 318.15 K): 0.013 | solubility (mole fraction) (in n-propanol, 323.15 K): 0.0157 | solubility (mole fraction) (in n-propanol, 328.15 K): 0.0189 | solubility (mole fraction) (in n-propanol, 333.15 K): 0.0225
